Reference: patent US20250115583A1, “BICYCLIC INDAZOLE GLUCOCORTICOID RECEPTOR ANTAGONISTS” (Corcept Therapeutics Incorporated, priority 2021, published 2025)
pKi: −log10 of the molar value.

Target: glucocorticoid receptor (Homo sapiens (Human), UniProt P04150)
Test: HepG2 TAT assay: inhibition of dexamethasone-induced tyrosine aminotransferase (TAT) activity
Format: cell-based
Conditions: HepG2 cells, challenge of 100 nM dexamethasone, 18-24 hr; IC50 converted to Ki by Cheng and Prusoff equation
In short: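 Cells lysed 15 min at 4 °C; TAT enzyme reaction 2 h at 37 °C, stopped with KOH, 30 min further at 37 °C. Inhibition fitted to 4-parameter logistic.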

glucocorticoid receptor, sequence (P04150 whole entry): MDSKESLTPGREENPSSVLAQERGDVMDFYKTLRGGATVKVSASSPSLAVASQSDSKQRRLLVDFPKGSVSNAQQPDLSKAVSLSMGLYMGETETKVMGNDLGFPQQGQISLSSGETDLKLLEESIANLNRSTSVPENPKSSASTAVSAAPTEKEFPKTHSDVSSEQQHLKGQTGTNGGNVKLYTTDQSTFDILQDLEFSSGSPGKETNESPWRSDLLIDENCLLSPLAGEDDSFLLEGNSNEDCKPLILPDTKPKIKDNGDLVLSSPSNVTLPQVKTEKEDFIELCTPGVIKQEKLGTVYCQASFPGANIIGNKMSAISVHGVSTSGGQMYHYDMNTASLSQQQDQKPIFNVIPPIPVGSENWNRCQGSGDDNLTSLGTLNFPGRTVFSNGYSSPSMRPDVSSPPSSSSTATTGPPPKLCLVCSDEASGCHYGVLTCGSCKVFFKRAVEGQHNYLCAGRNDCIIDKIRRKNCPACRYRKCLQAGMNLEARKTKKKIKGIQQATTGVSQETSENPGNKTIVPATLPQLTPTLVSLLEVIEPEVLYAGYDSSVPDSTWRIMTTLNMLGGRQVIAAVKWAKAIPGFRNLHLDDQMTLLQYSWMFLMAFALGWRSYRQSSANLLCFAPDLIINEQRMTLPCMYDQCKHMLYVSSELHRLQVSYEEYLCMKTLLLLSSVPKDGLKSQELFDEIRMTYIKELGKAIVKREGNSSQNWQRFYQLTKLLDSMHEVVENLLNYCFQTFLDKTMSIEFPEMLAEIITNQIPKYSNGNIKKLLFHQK

Row | pKi | SMILES
1 | 7.36 | CO[C@@]1(c2ccccc2)C[C@H]2CN(S(=O)(=O)c3cnn(C)c3)C[C@@]2(c2cc3cnn(-c4ccc(F)cc4)c3cc2C)C1 [Example 6, 1-(4-fluorophenyl)-5-((3aS,5S,6aR)-5-methoxy-2-((1-methyl-1H-pyrazol-4-yl)sulfonyl)-5-phenylhexahydrocyclopenta[c]pyrrol-3a(1H)-yl)-6-methyl-1H-indazole]
2 | 6.46 | CO[C@@]1(c2ccccc2)C[C@@H]2CN(S(=O)(=O)c3cnn(C)c3)C[C@]2(c2cc3cnn(-c4ccc(F)cc4)c3cc2C)C1 [Example 7, 1-(4-fluorophenyl)-5-((3aR,5S,6aS)-5-methoxy-2-((1-methyl-1H-pyrazol-4-yl)sulfonyl)-5-phenylhexahydrocyclopenta[c]pyrrol-3a(1H)-yl)-6-methyl-1H-indazole]
3 | 6.51 | CO[C@]1(c2ccccc2)C[C@H]2CN(S(=O)(=O)c3cnn(C)c3)C[C@@]2(c2cc3cnn(-c4ccc(F)cc4)c3cc2C)C1 [Example 8, 1-(4-fluorophenyl)-5-((3aS,5R,6aR)-5-methoxy-2-((1-methyl-1H-pyrazol-4-yl)sulfonyl)-5-phenylhexahydrocyclopenta[c]pyrrol-3a(1H)-yl)-6-methyl-1H-indazole]
4 | 6.89 | Cc1cc2c(cnn2-c2ccc(F)cc2)cc1C12CN(S(C)(=O)=O)CC1CC(O)(c1ccccc1)C2 (stereo not shown) [Example 9]
5 | 6.66 | Cc1cc2c(cnn2-c2ccc(F)cc2)cc1C12CN(S(=O)(=O)c3cnn(C)c3)CC1CC(O)(c1ccccc1)C2 (stereo not shown) [Example 10, 3a-(1-(4-fluorophenyl)-6-methyl-1H-indazol-5-yl)-2-((1-methyl-1H-pyrazol-4-yl)sulfonyl)-5-phenyloctahydrocyclopenta[c]pyrrol-5-ol]
6 | 7.48 | COC1(c2ccccc2)CC2CN(S(=O)(=O)c3cnn(C)c3)CC2(c2cc3cnn(-c4ccc(F)cc4)c3cc2C)C1 (stereo not shown) [Example 11, 1-(4-Fluorophenyl)-5-(5-methoxy-2-((1-methyl-1H-pyrazol-4-yl)sulfonyl)-5-phenylhexahydrocyclopenta[c]pyrrol-3a(1H)-yl)-6-methyl-1H-indazole]
7 | 6.77 | CCOC1(c2ccccc2)CC2CN(S(=O)(=O)c3cnn(C)c3)CC2(c2cc3cnn(-c4ccc(F)cc4)c3cc2C)C1 (stereo not shown) [Example 12]
8 | 7.11 | COC1(c2ccccc2)CC2CN(S(C)(=O)=O)CC2(c2cc3cnn(-c4ccc(F)cc4)c3cc2C)C1 (stereo not shown) [Example 13]
9 | 6.96 | COC1(c2cccc(C)c2)CC2CN(S(=O)(=O)c3cnn(C)c3)CC2(c2cc3cnn(-c4ccc(F)cc4)c3cc2C)C1 (stereo not shown) [Example 14]
10 | 6.48 | Cc1cc2c(cnn2-c2ccc(F)cc2)cc1C12CN(S(=O)(=O)c3cnn(C)c3)CC1CC(O)(c1ccccn1)C2 (stereo not shown) [Example 15]
11 | 6.57 | CC#CC1(OC)CC2CN(S(=O)(=O)c3cnn(C)c3)CC2(c2cc3cnn(-c4ccc(F)cc4)c3cc2C)C1 (stereo not shown) [Example 16]
12 | 7.36 | COC1(c2ccccc2)CC2CN(C(=O)OC(C)(C)C)CC2(c2cc3cnn(-c4ccc(F)cc4)c3cc2C)C1 (stereo not shown) [Example 18, tert-butyl 3a-(1-(4-fluorophenyl)-6-methyl-1H-indazol-5-yl)-5-methoxy-5-phenylhexahydrocyclopenta[c]pyrrole-2(1H)-carboxylate]
13 | 7.52 | CO[C@@]1(c2ccccc2)C[C@H]2CN(S(=O)(=O)c3cnn(C(C)C)n3)C[C@@]2(c2cc3cnn(-c4ccc(F)cc4)c3cc2C)C1 [Example 23]
14 | 7.28 | CCn1ncc(S(=O)(=O)N2CC3CC(OC)(c4ccccc4)CC3(c3cc4cnn(-c5ccc(F)cc5)c4cc3C)C2)n1 (stereo not shown) [Example 26]
15 | 7.11 | CCCn1ncc(S(=O)(=O)N2CC3CC(OC)(c4ccccc4)CC3(c3cc4cnn(-c5ccc(F)cc5)c4cc3C)C2)n1 (stereo not shown) [Example 27]
16 | 7.49 | COC1(c2ccccc2)CC2CN(S(=O)(=O)C3(C)CC3)CC2(c2cc3cnn(-c4ccc(F)cc4)c3cc2C)C1 (stereo not shown) [Example 28]
17 | 7.49 | COC1(c2ccccc2)CC2CN(S(=O)(=O)C(C)C)CC2(c2cc3cnn(-c4ccc(F)cc4)c3cc2C)C1 (stereo not shown) [Example 30]
18 | 6.89 | COC1(c2ccccc2)CC2CN(S(=O)(=O)c3ccn(C)n3)CC2(c2cc3cnn(-c4ccc(F)cc4)c3cc2C)C1 (stereo not shown) [Example 31]
19 | 6.10 | COC1CC2CN(S(C)(=O)=O)CC2(c2cc3cnn(-c4ccc(F)cc4)c3cc2C)C1 (stereo not shown) [Example 34, 1-(4-fluorophenyl)-5-(5-methoxy-2-(methylsulfonyl)hexahydrocyclopenta[c]pyrrol-3a(1H)-yl)-6-methyl-1H-indazole]
20 | 7.14 | Cc1cc2c(cnn2-c2ccc(F)cc2)cc1C12CC(Oc3ccccc3)CC1CN(S(C)(=O)=O)C2 (stereo not shown) [Example 36, 1-(4-fluorophenyl)-6-methyl-5-(2-(methylsulfonyl)-5-phenoxyhexahydrocyclopenta[c]pyrrol-3a(1H)-yl)-1H-indazole]
21 | 6.77 | Cc1cc2c(cnn2-c2ccc(F)cc2)cc1C12CC(Oc3ccccc3)CC1CN(S(C)(=O)=O)C2 (stereo not shown) [Example 37, 1-(4-fluorophenyl)-6-methyl-5-(2-(methylsulfonyl)-5-phenoxyhexahydrocyclopenta[c]pyrrol-3a(1H)-yl)-1H-indazole]
22 | 7.01 | Cc1cc2c(cnn2-c2ccc(F)cc2)cc1C12CC(Oc3ccccc3)CC1CN(S(C)(=O)=O)C2 (stereo not shown) [Example 38]
23 | 6.72 | Cc1cc2c(cnn2-c2ccc(F)cc2)cc1C12CC(Oc3ccccc3)CC1CN(C(=O)c1ccccc1)C2 (stereo not shown) [Example 39]
24 | 6.38 | CC(=O)N1CC2CC(Oc3ccccc3)CC2(c2cc3cnn(-c4ccc(F)cc4)c3cc2C)C1 (stereo not shown) [Example 40]
25 | 6.96 | Cc1cc2c(cnn2-c2ccc(F)cc2)cc1C12CC(Oc3ccccn3)CC1CN(S(C)(=O)=O)C2 (stereo not shown) [Example 41]
26 | 6.59 | Cc1cc2c(cnn2-c2ccc(F)cc2)cc1C12CC(Oc3cccnc3)CC1CN(S(C)(=O)=O)C2 (stereo not shown) [Example 42]
27 | 7.39 | CCCn1cc(S(=O)(=O)N2CC3CC(Oc4ccccc4)CC3(c3cc4cnn(-c5ccc(F)cc5)c4cc3C)C2)cn1 (stereo not shown) [Example 43]

Row | SMILES | pKi
28 | Cc1cc2c(cnn2-c2ccc(F)cc2)cc1C12CN(C(=O)OC(C)(C)C)CC1CC(O)(c1ccccc1)C2 (stereo not shown) [Example 17, tert-butyl 3a-(1-(4-fluorophenyl)-6-methyl-1H-indazol-5-yl)-5-hydroxy-5-phenylhexahydrocyclopenta[c]pyrrole-2(1H)-carboxylate] | 7.38
29 | CCn1cc(S(=O)(=O)N2C[C@@H]3C[C@@](OC)(c4ccccc4)C[C@]3(c3cc4cnn(-c5ccc(F)cc5)c4cc3C)C2)cn1 [Example 21] | 7.43
30 | CCCn1cc(S(=O)(=O)N2C[C@@H]3C[C@](OC)(c4ccccc4)C[C@]3(c3cc4cnn(-c5ccc(F)cc5)c4cc3C)C2)cn1 [Example 22] | 7.49
31 | CO[C@@]1(c2ccccc2)C[C@H]2CN(S(=O)(=O)C3CC3)C[C@@]2(c2cc3cnn(-c4ccc(F)cc4)c3cc2C)C1 [Example 24] | 7.49
32 | CO[C@]1(c2ccccc2)C[C@@H]2CN(S(=O)(=O)c3cncc(F)c3)C[C@]2(c2cc3cnn(-c4ccc(F)cc4)c3cc2C)C1 [Example 25] | 7.28
33 | CO[C@]1(c2ccccc2)C[C@@H]2CN(C(C)=O)C[C@]2(c2cc3cnn(-c4ccc(F)cc4)c3cc2C)C1 [Example 33] | 6.66
34 | Cc1cc2c(cnn2-c2ccc(F)cc2)cc1C12CC(OCc3ccccc3)CC1CN(C(=O)OC(C)(C)C)C2 (stereo not shown) [Example 35, tert-butyl 5-(benzyloxy)-3a-(1-(4-fluorophenyl)-6-methyl-1H-indazol-5-yl)hexahydrocyclopenta[c]pyrrole-2(1H)-carboxylate] | 6.80
